As usually defined, the IC50 is the concentration needed to halve the response being measured. A word on the MIC: it is the least concentration at which growth counts as inhibited.

For one test, the target named is T1, Msm. GyrB (Mycolicibacterium smegmatis, UniProt A0QNE0).
T1 construct: 15 nM Msm; GyrB, 650 μM ATP, and compound in dimethyl sulfoxide
In words: Msmegmatis GyrB enzyme assay (ATPase, malachite green phosphate detection). It is filed as biochemical. Conditions: read-out: Msm_GyrB IC50. The protocol:
Compounds may be tested for inhibition of GyrB ATPase activity using an ammonium molybdate/malachite green-based phosphate detection assay (Lanzetta, P. A., L. J. Alvarez, P. S. Reinach, and O. A. Candia, 1979, 100: 95-97; Innova Biosciences malachite green detection kit). Assays can be performed in multi-well plates in 50 μl reactions containing: 50 mM HEPES buffer pH 7.7, 250 mM potassium glutamate, 200 mM potassium chloride, 2 mM magnesium chloride, 2% glycerol, 1 mM 1,4-Dithio-DL-threitol, 0.005% Brij-35, 15 nM Msm. GyrB, 650 μM ATP, and compound in dimethyl sulfoxide. Reactions can be quenched with 12.5 μl of ammonium molybdate/malachite green detection reagent (Pi color lock gold & accelerator mix; Innova Biosciences), followed by the addition of 5 μl of stabilizer (Innova Biosciences) after 5 min of incubation.

The next test concerns M. tuberculosis. In words: Mycobacteria susceptibility testing, Microplate Alamar Blue Assay, Mtu MIC. It is filed as cell-based, Mycobacterium tuberculosis (Mtu). Conditions: Mycobacterium tuberculosis. For orientation: Alamar Blue is a resazurin reagent that responds to reducing activity.
The subject of the next test is Spn548. In words: Bacterial susceptibility testing in liquid media, Spn548 MIC. Conditions: Streptococcus pneumoniae, 24 h, read-out: Spn548 Mean MIC.
The next test has as its system Eco-tolC. In words: Bacterial susceptibility testing in liquid media, Eco-tolC MIC. The following applies: Escherichia coli, read-out: Eco-tolC MIC.

Molecules are shown by their SMILES. In brackets after ≈: the same amount, converted by molar mass. Some results are limits rather than exact numbers.

T1 sequence (A0QNE0 whole entry): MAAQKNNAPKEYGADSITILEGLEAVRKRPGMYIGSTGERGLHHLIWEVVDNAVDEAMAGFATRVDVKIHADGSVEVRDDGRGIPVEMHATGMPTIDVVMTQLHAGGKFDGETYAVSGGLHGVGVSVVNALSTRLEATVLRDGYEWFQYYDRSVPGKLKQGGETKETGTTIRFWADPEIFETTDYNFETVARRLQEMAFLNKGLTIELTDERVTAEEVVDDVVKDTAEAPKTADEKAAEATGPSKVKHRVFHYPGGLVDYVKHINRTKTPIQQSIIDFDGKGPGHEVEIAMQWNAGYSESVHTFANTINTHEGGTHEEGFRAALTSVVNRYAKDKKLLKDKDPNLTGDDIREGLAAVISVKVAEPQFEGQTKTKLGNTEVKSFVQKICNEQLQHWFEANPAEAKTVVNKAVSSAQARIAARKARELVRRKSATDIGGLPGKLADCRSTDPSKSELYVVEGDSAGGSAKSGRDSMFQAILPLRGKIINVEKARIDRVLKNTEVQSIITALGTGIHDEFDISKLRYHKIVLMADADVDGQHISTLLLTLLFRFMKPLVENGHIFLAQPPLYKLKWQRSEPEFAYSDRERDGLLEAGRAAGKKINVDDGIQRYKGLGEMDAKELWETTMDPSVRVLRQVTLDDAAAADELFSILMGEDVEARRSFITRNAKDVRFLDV
Text for Eco-tolC: (§1) Compounds may be tested for antimicrobial activity by susceptibility testing in liquid media. Compounds may be dissolved in dimethylsulfoxide and tested in 10 doubling dilutions in the susceptibility assays. The organisms used in the assay may be grown overnight on suitable agar media and then suspended in a liquid medium appropriate for the growth of the organism. The suspension can be a 0.5 McFarland and a further 1 in 10 dilution can be made into the same liquid medium to prepare the final organism suspension in 100 μL. Plates can be incubated under appropriate conditions at 37° C. for 24 hrs prior to reading.
Text for Spn548: as §1

On to `CCNC(=O)Nc1nc2cc(-c3cncc(C(=O)OCC)c3)cnc2s1` [Example 9, 5-[2-(3-Ethyl-ureido)-thiazolo [5,4-b]pyridin-6-yl]-nicotinic acid ethyl ester], for which, on Msm. GyrB, the IC50 was 0.0511 µM. The MIC in the test on M. tuberculosis was more than 32 µg/mL; with Spn548, 0.58 µg/mL (≈ 1.56 µM); with Eco-tolC, more than 37.1 µg/mL.
In the same order, the values of `C=CCNC(=O)Nc1nc2cc(-c3cncc(C(=O)O)c3)cnc2s1` [Example 10, 5-[2-(3-Allyl-ureido)-thiazolo[5,4-b]pyridin-6-yl]-nicotinic acid] are 0.185 µM, more than 16 µg/mL, 32 µg/mL (≈ 90 µM) and more than 64 µg/mL.
With `CCNC(=O)Nc1nc2cc(-c3cncc(C(=O)O)c3)cnc2s1` [Example 11, 5-[2-(3-Ethyl-ureido)-thiazolo [5,4-b]pyridin-6-yl]-nicotinic acid], the IC50 at Msm. GyrB stood at 0.159 µM. Also, the MIC is 32 µg/mL (≈ 93.2 µM) in the test with M. tuberculosis, 17.2 µg/mL (≈ 50 µM) with Spn548 and more than 34.3 µg/mL in the test on Eco-tolC.
Turning to `C=CCNC(=O)Nc1nc2cc(-c3cncc(C(=O)O)c3)c(C)nc2s1` [Example 12, 5-[2-(3-Allyl-ureido)-5-methylthiazolo [5,4b]pyridin-6-yl]nicotinic acid], the IC50 at Msm. GyrB stood at 0.166 µM. Besides, the MIC was more than 32 µg/mL against M. tuberculosis, 32 µg/mL (≈ 86.6 µM) in the test with Spn548 and more than 32 µg/mL in the test with Eco-tolC.
For `C=CCNC(=O)Nc1nc2cc(-c3cncc(C(=O)N(C)C)c3)c(C)nc2s1` [Example 13, 5-[2-(3-Allyl-ureido)-5-methyl-thiazolo[5,4-b]pyridin-6-yl]-N,N-dimethyl-nicotinamide], the IC50 at Msm. GyrB turned out to be 0.644 µM. Also, the MIC with M. tuberculosis is more than 32 µg/mL; with Spn548, 4 µg/mL (≈ 10.1 µM); in the test with Eco-tolC, more than 32 µg/mL.
As to `C=CCNC(=O)Nc1nc2cc(Br)cnc2o1` [Example 14, 1-allyl-3-(6-bromooxazolo[5,4-b]pyridin-2-yl)urea], on Msm. GyrB, the IC50 was 24.7 µM. The results for the minimal inhibitory concentration (MIC) against M. tuberculosis, in the test on Spn548 and with Eco-tolC were more than 16 µg/mL, 16 µg/mL (≈ 53.9 µM) and 32 µg/mL (≈ 108 µM), respectively.
`C=CCNC(=O)Nc1nc2cc(-c3cccnc3)cnc2o1` [Example 15, 1-allyl-3-(6-(pyridin-3-yl)oxazolo[5,4-b]pyridin-2-yl)urea]: the IC50 at Msm. GyrB was 2 µM. For the same molecule, the MIC against M. tuberculosis is more than 16 µg/mL; in the test with Spn548 it was 16 µg/mL (≈ 54.2 µM); in the test with Eco-tolC, more than 64 µg/mL.
On to `C=CCNC(=O)Nc1nc2cc(-c3cnc(OC)nc3)c(C)nc2o1` [Example 16, 3-allyl-1-[6-(2-methoxypyrimidin-5-yl)-5-methyl-oxazolo[5,4-b]pyridin-2-yl]urea], for which the IC50 at Msm. GyrB worked out at 1.61 µM. In addition, the minimum inhibitory concentration (MIC) is more than 32 µg/mL with M. tuberculosis, 16 µg/mL (≈ 47 µM) in the test on Spn548 and more than 32 µg/mL with Eco-tolC.
Turning to `C=CCNC(=O)Nc1nc2cc(-c3cnc(OC)nc3)c(OCCN(C)C)nc2s1` [Example 17, 1-allyl-3-(5-(2-(dimethylamino)ethoxy)-6-(2-methoxypyrimidin-5-yl)thiazolo[5,4-b]pyridin-2-yl)urea], the IC50 at Msm. GyrB was determined as 0.216 µM. Moreover, the MIC in the test on M. tuberculosis is more than 64 µg/mL; in the test on Spn548, 16 µg/mL (≈ 37.3 µM); with Eco-tolC it was more than 64 µg/mL.
On to `CCNC(=O)Nc1nc2cc(-c3cnc(OC)nc3)cnc2o1` [Example 18, 1-ethyl-3-[6-(2-methoxypyrimidin-5-yl)[1,3]oxazolo[5,4-b]pyridin-2-yl]urea], for which the IC50 at Msm. GyrB came to 10.9 µM. In addition, the MIC against M. tuberculosis, with Spn548 and in the test with Eco-tolC was more than 32 µg/mL in each case.
On to `C=CCNC(=O)Nc1nc2cc(-c3cncc(C(=O)NCCCN4CCCC4=O)c3)cnc2s1` [Example 19, N-[3-(2-oxopyrrolidin-1-yl)propyl]-5-{2-[(prop-2-en-1-ylcarbamoyl)amino][1,3]thiazolo[5,4-b]pyridin-6-yl}pyridine-3-carboxamide], for which, at Msm. GyrB, the IC50 turned out to be 0.297 µM. Besides, the figures for the MIC in the test with M. tuberculosis, in the test with Spn548 and in the test with Eco-tolC were 32 µg/mL (≈ 66.7 µM), more than 32 µg/mL and more than 32 µg/mL, respectively.
For `C=CCNC(=O)Nc1nc2cc(-c3cnc(OC)nc3)c(OCCN3CCCC3)nc2s1` [Example 20, 1-[6-(2-methoxypyrimidin-5-yl)-5-(2-pyrrolidin-1-ylethoxy)[1,3]thiazolo[5,4-b]pyridin-2-yl]-3-prop-2-en-1-ylurea], the IC50 at Msm. GyrB stood at 0.259 µM. Besides, the MIC against M. tuberculosis, in the test with Spn548 and in the test on Eco-tolC was more than 32 µg/mL in each case.
Consider `C=CCNC(=O)Nc1nc2cc(-c3cncc(C(=O)NCC4CCOCC4)c3)cnc2s1` [Example 21, 5-{2-[(prop-2-en-1-ylcarbamoyl)amino][1,3]thiazolo[5,4-b]pyridin-6-yl}-N-(tetrahydro-2H-pyran-4-ylmethyl)pyridine-3-carboxamide], for which, at Msm. GyrB, the IC50 worked out at 0.236 µM. The MIC in the test with M. tuberculosis is more than 64 µg/mL; in the test on Spn548, more than 32 µg/mL; in the test on Eco-tolC, more than 32 µg/mL.
Consider `C=CCNC(=O)Nc1nc2cc(-c3cncc(C(=O)NC)c3)cnc2s1` [Example 22, N-methyl-5-{2-[(prop-2-en-1-ylcarbamoyl)amino][1,3]thiazolo[5,4-b]pyridin-6-yl}pyridine-3-carboxamide], for which the IC50 on Msm. GyrB was found to be 0.323 µM. Further, the figures for the MIC in the test on M. tuberculosis, with Spn548 and with Eco-tolC were more than 64 µg/mL, more than 32 µg/mL and more than 32 µg/mL, respectively.
As to `C=CCNC(=O)Nc1nc2cc(-c3cncc(C(=O)NCC)c3)cnc2s1` [Example 23, N-ethyl-5-{2-[(prop-2-en-1-ylcarbamoyl)amino][1,3]thiazolo[5,4-b]pyridin-6-yl}pyridine-3-carboxamide], the IC50 at Msm. GyrB was found to be 0.404 µM. Also, the MIC against M. tuberculosis is more than 64 µg/mL; in the test on Spn548 it was more than 32 µg/mL; with Eco-tolC, more than 32 µg/mL.
As to `C=CCNC(=O)Nc1nc2cc(-c3cncc(C(=O)NCCC(C)C)c3)cnc2s1` [Example 24, N-(3-methylbutyl)-5-{2-[(prop-2-en-1-ylcarbamoyl)amino][1,3]thiazolo[5,4-b]pyridin-6-yl}pyridine-3-carboxamide], on Msm. GyrB, the IC50 is 0.583 µM. Moreover, the MIC in the test on M. tuberculosis was more than 64 µg/mL; with Spn548, more than 32 µg/mL; in the test with Eco-tolC it was more than 32 µg/mL.
For `C=CCNC(=O)Nc1nc2cc(-c3cncc(C(=O)N4CCOCC4)c3)cnc2s1` [Example 25, 1-{6-[5-(morpholin-4-ylcarbonyl)pyridin-3-yl][1,3]thiazolo[5,4-b]pyridin-2-yl}-3-prop-2-en-1-ylurea], the IC50 at Msm. GyrB came to 1.44 µM. The minimum inhibitory concentration (MIC) against M. tuberculosis, with Spn548 and in the test with Eco-tolC was more than 32 µg/mL in each case.
In the case of `C=CCNC(=O)Nc1nc2cc(-c3cncc(C(=O)NCC(C)C)c3)cnc2s1` [Example 26, N-(2-methylpropyl)-5-{2-[(prop-2-en-1-ylcarbamoyl)amino][1,3]thiazolo[5,4-b]pyridin-6-yl}pyridine-3-carboxamide], on Msm. GyrB, the IC50 turned out to be 0.394 µM. The MIC in the test on M. tuberculosis, in the test on Spn548 and with Eco-tolC was more than 32 µg/mL each time.
As to `C=CCNC(=O)Nc1nc2cc(-c3cc[nH]n3)c(C)nc2s1` [Example 27, 1-[5-methyl-6-(1H-pyrazol-3-yl)[1,3]thiazolo[5,4-b]pyridin-2-yl]-3-prop-2-en-1-ylurea], on Msm. GyrB, the IC50 was 1.84 µM. Further, the results for the MIC in the test on M. tuberculosis, with Spn548 and in the test on Eco-tolC were 11.3 µg/mL (≈ 36 µM), 2 µg/mL (≈ 6.36 µM) and more than 22.6 µg/mL, respectively.
`C=CCNC(=O)Nc1nc2cc(-c3cncnc3)c(OCCOC)nc2s1` [Example 30, 1-[5-(2-methoxyethoxy)-6-pyrimidin-5-yl[1,3]thiazolo[5,4-b]pyridin-2-yl]-3-prop-2-en-1-ylurea]: on Msm. GyrB, the IC50 came out at 0.0603 µM. Moreover, the MIC was 2 µg/mL (≈ 5.18 µM) with M. tuberculosis, 0.152 µg/mL (≈ 0.394 µM) in the test with Spn548 and 0.609 µg/mL (≈ 1.58 µM) in the test on Eco-tolC.
In the same order, the values of `C=CCNC(=O)Nc1nc2cc(-c3nc(C(=O)O)cs3)cnc2s1` [Example 31, 2-{2-[(prop-2-en-1-ylcarbamoyl)amino][1,3]thiazolo[5,4-b]pyridin-6-yl}-1,3-thiazole-4-carboxylic acid] are 8.94 µM, more than 32 µg/mL, more than 32 µg/mL and more than 32 µg/mL.
In the same order, the values of `C=CCNC(=O)Nc1nc2cc(-c3cnccn3)cnc2s1` [Example 32, 1-prop-2-en-1-yl-3-(6-pyrazin-2-yl[1,3]thiazolo[5,4-b]pyridin-2-yl)urea] are 0.836 µM, more than 32 µg/mL, 32 µg/mL (≈ 102 µM) and more than 32 µg/mL.
For `C=CCNC(=O)Nc1nc2cc(-c3cncnc3)c(OCC(C)C)nc2s1` [Example 33, 1-[5-(2-methylpropoxy)-6-pyrimidin-5-yl[1,3]thiazolo[5,4-b]pyridin-2-yl]-3-prop-2-en-1-ylurea] the same measures were 0.0184 µM, 1 µg/mL (≈ 2.6 µM), 0.0625 µg/mL (≈ 0.163 µM) and 1 µg/mL (≈ 2.6 µM).
Consider `C=CCNC(=O)Nc1nc2cc(-c3cncnc3)c(OCc3ccccn3)nc2s1` [Example 34, 1-prop-2-en-1-yl-3-[5-(pyridin-2-ylmethoxy)-6-pyrimidin-5-yl[1,3]thiazolo[5,4-b]pyridin-2-yl]urea], for which the IC50 on Msm. GyrB is 0.0281 µM. Further, the MIC against M. tuberculosis came to 1.41 µg/mL (≈ 3.37 µM); in the test with Spn548 it was 0.0625 µg/mL (≈ 0.149 µM); in the test on Eco-tolC, 1 µg/mL (≈ 2.38 µM).
